# Laboratory results published in patent US20210253628A1, “COMPOUNDS, COMPOSITIONS, AND METHODS FOR TREATMENT OF ANDROGEN-MEDIATED DISEASE” (The Regents of the University of California, priority 2018, published 2021).
# Entries after “also recorded” stand apart in the source; their conditions may differ.
# Key:
# CWR22-rv1 tumors = CWR22-rv1 tumors in mice, combination treatment with Nic-S and enzalutamide
# Wnt5A = Wnt5A expression by Western blot in C4-2B MDVR cells; type: cell-based; settings: C4-2B MDVR cell lysates, different concentrations
# CWR22Rv1 = CWR22Rv1 cell number with Nic-S with or without enzalutamide or abiraterone acetate; type: cell-based
# VCaP tumors = assay: Castration relapsed VCaP xenograft tumor model; settings: for Ki67 expression in relapsed VCaP tumors, single agent / tumor growth, single agent (combination study): enzalutamide 25 mg/Kg p.o. or Si-1 25 mg/Kg i.p.
# Description: Tumor volumes were determined twice weekly.
# VCaP tumors were allowed to develop in intact SCID mice and the animals were castrated after tumors reached 80-100 mm^3 of size. […] Tumor proliferation and AR expression by IHC was also examined.
# The VCaP tumor model was then used to validate the efficacy of combination therapy.
# AR [1] = assay: AR expression by western blot in VCaP cells; settings: 3 days; for AR expression: western blot, 25 μM Si-1 or Si-2 or 20 μM enzalutamide alone
# Description: (§1) The sensitivity of prostate cancer cells to STS inhibitors was tested using cell growth assays and clonogenic assays. Quantitative reverse transcription-PCR, and Western blotting were performed to detect expression levels of STS and AR. […] Steroid profile including DHEA and androgens was analyzed by Liquid Chromatography-Mass Spectrometry (LC-MS). STS activity was determined by 4-Methylumbelliferyl sulfate assay through a fluorescence microtiter plate reader. PSA secretion was determined by ELISA and PSA-luciferase activity was measured by reporter assay.
# (§2) The AR expression was also determined by western blot.
# AR [2] = assay: PSA-luciferase reporter assay (AR transcriptional activity) in VCaP cells; type: cell-based
# Description: as §1, §2
# [3] = system: MCF-7, MDA-MB-468 and MDA-MB-231 cells; assay: Breast cancer cell growth (cell numbers counted); type: cell-based; settings: different doses, 48 hrs
# VCaP cells = assay: VCaP cell growth with or without enzalutamide; settings: 3 days; for VCaP cell growth, single agent: 10 μM or 25 μM Si-1 or Si-2, or 20 μM enzalutamide
# [4] = system: C4-2B, LNCaP, DU145, PC3, CWR22rv1 and VCaP cells; assay: Prostate cancer cell growth assay (cell numbers counted)
# STS = target: T1, STS (Homo sapiens, UniProt P08842); assay: STS enzymatic activity in VCaP cells (4-Methylumbelliferyl sulfate microtiter plate cellular assay, fluorescence readout); type: cell-based
# T1 construct: A VCaP tumor model that expresses endogenous STS was employed; endogenous in cells; host or cells: VCaP prostate cancer cells
# T1 sequence (P08842 22-583): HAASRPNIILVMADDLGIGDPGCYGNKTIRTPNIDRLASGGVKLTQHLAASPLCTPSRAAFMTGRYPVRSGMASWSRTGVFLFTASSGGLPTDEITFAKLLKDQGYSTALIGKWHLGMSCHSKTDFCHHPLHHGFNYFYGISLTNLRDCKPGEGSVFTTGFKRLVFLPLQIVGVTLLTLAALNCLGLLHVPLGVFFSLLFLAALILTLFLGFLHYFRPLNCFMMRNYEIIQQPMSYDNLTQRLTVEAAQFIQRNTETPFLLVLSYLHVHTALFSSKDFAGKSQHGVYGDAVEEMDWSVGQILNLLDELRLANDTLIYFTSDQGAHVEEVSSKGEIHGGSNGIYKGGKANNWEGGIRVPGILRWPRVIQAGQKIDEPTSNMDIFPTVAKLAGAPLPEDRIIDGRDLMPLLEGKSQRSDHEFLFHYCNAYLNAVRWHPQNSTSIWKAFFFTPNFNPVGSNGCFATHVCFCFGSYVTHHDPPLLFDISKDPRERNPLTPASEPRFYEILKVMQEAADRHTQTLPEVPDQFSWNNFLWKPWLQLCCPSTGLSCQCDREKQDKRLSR
# Description: VCaP cells were treated with 5 μM of different STSi, and STS activity was measured by microtiter plate cellular assay using fluorescence readout.
# To evaluate the ability of STSi in inhibition of STS enzymatic activity, VCaP prostate cancer cells were treated with two synthesized STSi and STS enzymatic activity was measured. The activity assay was carried as described by Wolff, et al. (Anal Biochem, 2003. 318(2): p. 276-284). […] FIG. 3 shown the effects of other STSi on STS enzymatic activity in VCaP cells.
# [5] = in vivo; cited from earlier work
# [6] = cited from earlier work
structure (smiles),measurement,setting,value
"NS(=O)(=O)Oc1ccc(Cl)cc1C(=O)Nc1ccc([N+](=O)[O-])cc1Cl [Niclosamide sulfamate, niclosamide sulfamate]",toxicity,CWR22-rv1 tumors; body weight of mice bearing CWR22-rv1 tumors,without obvious toxicity
same,enhancement of enzalutamide treatment in vivo,"CWR22-rv1 tumors; tumor volume, mice bearing CWR22-rv1 tumors",synergistically enhance
same,Wnt5A expression,Wnt5A,inhibit
same,Wnt5A expression,Wnt5A; listed as Nic-S,suppresses
same,enhancement of Enza/AA treatment,CWR22Rv1; 0.5 μM Nic-S with 20 μM enzalutamide or 5 μM abiraterone acetate,synergistically enhances
same,enhancement of enzalutamide treatment in vitro,"CWR22Rv1; 0.5 μM Nic-S with 20 μM enzalutamide, 3 and 5 days",synergistically enhance
CCN(C(=O)C1=CCC2C3CCc4cc(OS(N)(=O)=O)ccc4C3CCC12C)C(C)C (stereo not drawn) [Si-1],AR staining / tumor AR expression in VCaP tumors (IHC),"VCaP tumors; 25 mg/kg/d i.p., 3 weeks",significantly suppressed
same,Ki67 staining in VCaP tumors (IHC),"VCaP tumors; 25 mg/kg/d i.p., 3 weeks",less
same,tumor suppression compared with control,"VCaP tumors; 25 mg/kg/d i.p., 3 weeks",around 60%
same,relapsed VCaP tumor growth / tumor progression,"VCaP tumors; 25 mg/kg/d i.p., castrated mice, 3 weeks",significantly suppressed; also recorded: significantly diminished
same,decrease of serum PSA,"VCaP tumors; 3 weeks of treatment, control group 300 ng/mL PSA, ELISA",50%
same,"Ki67 expression in relapsed VCaP tumors, combination with enzalutamide","VCaP tumors; IHC, Si-1 plus enzalutamide",further lowered
same,"Ki67 expression in relapsed VCaP tumors, single agent",VCaP tumors; IHC,significantly decreased
same,"tumor growth, combined with enzalutamide","VCaP tumors; Si-1 25 mg/Kg i.p. plus enzalutamide 25 mg/Kg p.o., 3 weeks",further suppressed
same,"tumor weight, single agent (combination study)","VCaP tumors; Si-1 25 mg/Kg i.p., 3 weeks",significantly suppressed
same,tumor weight,"VCaP tumors; after 3 weeks treatment, 25 mg/kg/d i.p.",significantly decreased
same,mice body weight,"VCaP tumors; compared with control group, 25 mg/kg/d i.p.",not affected
same,"tumor growth, single agent (combination study)",VCaP tumors; 3 weeks,significantly suppressed
same,"AR expression, combination with enzalutamide",AR [1]; 25 μM Si-1 or Si-2 with 20 μM enzalutamide,completely suppressed
same,AR expression,AR [1],significantly suppressed; also recorded: significantly decreased
same,AR transcriptional activity,AR [2],significantly suppressed
same,breast cancer cell growth (cell numbers),[3],inhibits cell growth in a dose dependent manner
same,"VCaP cell growth, single agent",VCaP cells,reduced
same,"VCaP cell numbers, combination with enzalutamide",VCaP cells; Si-1 or Si-2 with 20 μM enzalutamide,further reduced
same,growth of C4-2B and VCaP cells,[4]; C4-2B and VCaP cells,inhibited
same,cell growth (cell numbers),"[4]; increasing doses, 48 hrs, C4-2B, LNCaP, DU145, PC3, CWR22rv1 and VCaP cells",inhibited cell growth in a dose dependent manner
same,STS activity,STS,inhibited
"O=C(Nc1ccc([N+](=O)[O-])cc1Cl)c1cc(Cl)ccc1O [Niclosamide, 2′,5-dichloro-4′-nitrosalicylanilide]",oral bioavailability,[5],low
same,solubility,[6],low
"CNC(=O)c1ccc(N2C(=S)N(c3ccc(C#N)c(C(F)(F)F)c3)C(=O)C2(C)C)cc1F [enzalutamide, reference compound]","Ki67 expression in relapsed VCaP tumors, single agent",VCaP tumors; IHC,did not affect
same,"tumor growth, single agent (combination study)",VCaP tumors; 3 weeks,only slighted delayed
same,AR expression,AR [1],decreased
same,"VCaP cell growth, single agent",VCaP cells,slightly suppressed
